Laboratory results as given in patent US8735410B2, “Quinazoline derivatives as tyrosine kinase inhibitors” (AstraZeneca AB, priority 2005, dated 2014).

System: KB cells (human tumour cell line ATCC CCL-17)
Assay: EGFR driven KB cell proliferation assay (Test b)
Format: cell-based
Conditions: geometric mean of n tests, EGF driven proliferation of KB cells
Experimental: b) EGFR Driven KB Cell Proliferation Assay
This assay measures the ability of a test compound to inhibit the proliferation of KB cells (human tumour cell line ATCC CCL-17).
KB cells were cultured in Dulbecco's modified Eagle's medium (DMEM) containing 10% foetal calf serum, 2 mM glutamine and 1% non-essential amino acids at 37° C. in a 7.5% CO2 air incubator. Cells were harvested from the stock flasks using Trypsin/ethylaminediaminetetraacetic acid (EDTA). Cell density was measured using a haemocytometer and viability was calculated using trypan blue solution before being seeded at a density of 1.25×10^3 cells per well of a 96 well plate in DMEM containing 2.5% charcoal stripped serum, 1 mM glutamine and 1% non-essential amino acids at 37° C. in 7.5% CO2 and allowed to settle for 4 hours.
Following adhesion to the plate, the cells are treated with or without EGF (final concentration of 1 ng/ml) and with or without compound at a range of concentrations in dimethylsulfoxide (DMSO) (0.1% final) before incubation for 4 days. Following the incubation period, cell numbers were determined by addition of 50 μl of 3-(4,5-Dimethylthiazol-2-yl)-2,5-diphenyltetrazolium bromide (MTT) (stock 5 mg/ml) for 2 hours. MTT solution was then tipped off, the plate gently tapped dry and the cells dissolved upon the addition of 100 μl of DMSO.
Absorbance of the solubilised cells was read at 540 nm using a Molecular Devices ThermoMax microplate reader. Inhibition of proliferation was expressed as an IC50 value. This was determined by calculation of the concentration of compound that was required to give 50% inhibition of EGF driven proliferation. The range of proliferation was calculated from the positive (vehicle plus EGF) and negative (vehicle minus EGF) control values. The IC50 value obtained from basal cell growth gives a measure of selectivity.

Structure (SMILES): COc1cc2ncnc(Nc3cccc(Cl)c3F)c2cc1O[C@H]1CCN(C)[C@H](C(N)=O)C1 [Example 1, (2S,4S)-4-({4-[(3-chloro-2-fluorophenyl)amino]-7-methoxyquinazolin-6-yl}oxy)-1-methylpiperidine-2-carboxamide]
- IC50: 56 nM

Structure (SMILES): CNC(=O)[C@@H]1C[C@@H](Oc2cc3c(Nc4cccc(Cl)c4F)ncnc3cc2OC)CCN1C [Example 2, (2S,4S)-4-({4-[(3-chloro-2-fluorophenyl)amino]-7-methoxyquinazolin-6-yl}oxy)-N,1-dimethylpiperidine-2-carboxamide]
- IC50: 61 nM

Structure (SMILES): CNC(=O)[C@H]1C[C@H](Oc2cc3c(Nc4cccc(Cl)c4F)ncnc3cc2OC)CCN1C [Example 3, (2R,4R)-4-({4-[(3-chloro-2-fluorophenyl)amino]-7-methoxyquinazolin-6-yl}oxy)-N,1-dimethylpiperidine-2-carboxamide]
- IC50: 23 nM
